We go through eleven compounds from patent EP4603105A1, “PHARMACEUTICAL COMPOSITION CONTAINING CYCLIC COMPOUND HAVING SELECTIVE KRAS INHIBITORY EFFECT AGAINST HRAS AND NRAS” (CHUGAI SEIYAKU KABUSHIKI KAISHA, priority 2022, dated 2024).

Assay [1] deals with GDP-bound NRAS wild-type protein (Homo sapiens, UniProt P01111). The assay is described as follows: Binding to NRAS by surface plasmon resonance (SPR), KD and KD ratio to KRAS. To be noted: ratio of KD for GDP-bound NRAS wild-type protein to KD for KRAS. In short, it runs like this:
(§1)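 Biotinylated GDP-bound RAS was captured at about 100–300 RU. Running buffer: HBS pH 7.4, 10 mM MgCl2, 10 µM GDP, 1 mM DTT, 0.01% Tween 20, 4% DMSO.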

Assay [2] has as its system human lung cancer strain NCI-H441. Put plainly: NCI-H441 cell proliferation inhibitory activity (CellTiter-Glo, 4 days). Type of assay: cell-based. To be noted: NCI-H441 cells, 4 days, read-out: NCl-H441 IC50. In short, it runs like this: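 Step one: dispense the test compound in serial DMSO dilutions. Step three: add the reagent and measure […].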
The target in a further assay is HRAS wild-type protein (Homo sapiens, UniProt P01112). The assay is described as follows: Binding to HRAS by surface plasmon resonance (SPR), KD and KD ratio to KRAS. The settings on record: ratio of KD for HRAS wild-type protein to KD for KRAS. An outline of the steps: as §1
In assay [3] the target is GDP-bound KRAS wild-type protein (Homo sapiens, UniProt P01116). The assay is described as follows: Binding to KRAS by surface plasmon resonance (SPR), dissociation constant KD. The settings on record: 1:1 binding model. An outline of the steps: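 Measured at 30°C: SPR with GDP-loaded, E. coli-expressed biotin-Avi RAS captured (~100–300 RU), ascending 75 s compound injections, HBS pH 7.4 with GDP, MgCl2, 4% DMSO. KD from 1:1 fit.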
Chain of GDP-bound KRAS wild-type protein (P01116 1-188 isoform P01116-2): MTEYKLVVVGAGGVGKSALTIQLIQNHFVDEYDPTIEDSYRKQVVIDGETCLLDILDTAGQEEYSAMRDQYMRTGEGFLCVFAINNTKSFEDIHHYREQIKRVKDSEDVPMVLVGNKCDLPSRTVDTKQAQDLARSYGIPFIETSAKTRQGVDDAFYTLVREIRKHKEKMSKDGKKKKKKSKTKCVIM

Chain of HRAS wild-type protein (P01112 whole entry): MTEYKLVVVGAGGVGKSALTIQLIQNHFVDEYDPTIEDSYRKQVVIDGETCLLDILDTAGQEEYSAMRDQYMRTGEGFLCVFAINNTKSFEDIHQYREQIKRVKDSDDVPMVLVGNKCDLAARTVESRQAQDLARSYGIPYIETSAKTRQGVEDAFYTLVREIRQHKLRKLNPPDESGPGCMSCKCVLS
Chain of GDP-bound NRAS wild-type protein (P01111 whole entry): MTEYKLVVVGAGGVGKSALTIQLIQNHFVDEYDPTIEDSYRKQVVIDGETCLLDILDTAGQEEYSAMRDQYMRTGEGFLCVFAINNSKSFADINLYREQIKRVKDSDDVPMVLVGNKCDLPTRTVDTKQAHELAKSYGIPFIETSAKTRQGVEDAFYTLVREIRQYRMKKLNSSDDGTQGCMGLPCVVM

Take `CCO[C@@H]1C[C@H]2C(=O)NC3(CC(C)(C)C3)C(=O)N(C)[C@@H](C3CCCC3)C(=O)N(C)[C@H](C(=O)N(C)CC)CC(=O)N(C)[C@@H](COC)C(=O)N[C@@H]([C@@H](C)CC)C(=O)N(C)CC(=O)N(C)[C@H]3C/C=C\CCN(C3=O)[C@@H](Cc3ccc(C)cc3)C(=O)N(C)CC(=O)N[C@@H](CCc3cc(F)c(C(F)(F)F)c(F)c3)C(=O)N2C1` [PP2396]: the “NRAS /KRAS” value in assay [1] was “A (a compound having 10 or more and less than 20 is denoted as A)”. Further, the IC50 in assay [2] was 4.1 nM. Also, the “HRAS /KRAS” value at HRAS wild-type protein is “A (a compound having 10 or more and less than 20 is denoted as A)”. Further, the Kd in assay [3] came out at 0.069 nM.

`CCOC[C@H]1C(=O)N[C@@H]([C@@H](C)CC)C(=O)N(C)CC(=O)N(C)[C@H]2C/C=C\CCN(C2=O)[C@@H](Cc2ccc(C)cc2)C(=O)N(C)CC(=O)N[C@@H](CCc2cc(F)c(C(F)(F)F)c(F)c2)C(=O)N2C[C@H](OCC)C[C@H]2C(=O)NC2(CC(C)(C)C2)C(=O)N(C)[C@@H](C2CCCC2)C(=O)N(C)[C@H](C(=O)N(C)C)CC(=O)N1C` [PP2397]: the “NRAS /KRAS” value in assay [1] is “A (a compound having 10 or more and less than 20 is denoted as A)”. In addition, the IC50 in assay [2] worked out at 4.7 nM. The “HRAS /KRAS” value at HRAS wild-type protein is “A (a compound having 10 or more and less than 20 is denoted as A)”. Besides, the Kd in assay [3] worked out at 0.051 nM.

Turning to `CCOC[C@H]1C(=O)N[C@@H]([C@@H](C)CC)C(=O)N(C)CC(=O)N(C)[C@H]2C/C=C\CCN(C2=O)[C@@H](Cc2ccc(C)cc2)C(=O)N(C)CC(=O)N[C@@H](CCc2ccc(C(F)(F)F)c(Cl)c2)C(=O)N2C[C@H](OCC)C[C@H]2C(=O)NC2(CC(C)(C)C2)C(=O)N(C)[C@@H](C2CCCC2)C(=O)N(C)[C@H](C(=O)N(C)CC)CC(=O)N1C` [PP2401], the “NRAS /KRAS” value in assay [1] was “A (a compound having 10 or more and less than 20 is denoted as A)”. Besides, in assay [2], the IC50 worked out at 5.3 nM. Besides, at HRAS wild-type protein, the “HRAS /KRAS” value is “A (a compound having 10 or more and less than 20 is denoted as A)”. The compound also registered a Kd in assay [3] of 0.12 nM.

In the case of `CCCOC[C@H]1C(=O)N[C@@H]([C@@H](C)CC)C(=O)N(C)CC(=O)N(C)[C@H]2C/C=C\CCN(C2=O)[C@@H](Cc2ccc(C)cc2)C(=O)N(C)CC(=O)N[C@@H](CCc2ccc(C(F)(F)F)c(Cl)c2)C(=O)N2C[C@H](OCC)C[C@H]2C(=O)NC2(CC(C)(C)C2)C(=O)N(C)[C@@H](C2CCCC2)C(=O)N(C)[C@H](C(=O)N(C)C)CC(=O)N1C` [PP2402], the “NRAS /KRAS” value in assay [1] was “A (a compound having 10 or more and less than 20 is denoted as A)”. Further, the IC50 in assay [2] is 10.6 nM. Besides, the “HRAS /KRAS” value at HRAS wild-type protein is “A (a compound having 10 or more and less than 20 is denoted as A)”. In addition, binding in assay [3] was put at a Kd of 0.092 nM.

Take `CCO[C@@H]1C[C@H]2C(=O)NC3(CC(C)(C)C3)C(=O)N(C)[C@@H](C3CCCC3)C(=O)N(C)[C@H](C(=O)N(CC)CC)CC(=O)N(C)[C@@H](COC)C(=O)N[C@@H]([C@@H](C)CC)C(=O)N(C)CC(=O)N(C)[C@H]3C/C=C\CCN(C3=O)[C@@H](Cc3ccc(C)cc3)C(=O)N(C)CC(=O)N[C@@H](CCc3cc(F)c(C(F)(F)F)c(F)c3)C(=O)N2C1` [PP2403]: the “NRAS /KRAS” value in assay [1] is “A (a compound having 10 or more and less than 20 is denoted as A)”. Further, in assay [2], the IC50 was found to be 7.2 nM. Besides, the “HRAS /KRAS” value on HRAS wild-type protein was “A (a compound having 10 or more and less than 20 is denoted as A)”. In assay [3], this compound came in with a Kd of 0.22 nM.

`CCOC[C@H]1C(=O)N[C@@H]([C@@H](C)CC)C(=O)N(C)CC(=O)N(C)[C@H]2C/C=C\CCN(C2=O)[C@@H](Cc2ccc(C)cc2)C(=O)N(C)CC(=O)N[C@@H](CCc2cc(F)c(C(F)(F)F)c(F)c2)C(=O)N2C[C@H](OCC)C[C@H]2C(=O)NC2(CC(C)(C)C2)C(=O)N(C)[C@@H](C2CCCC2)C(=O)N(C)[C@H](C(=O)N(C)CC)CC(=O)N1C` [PP2404]: in assay [1], the “NRAS /KRAS” value is “A (a compound having 10 or more and less than 20 is denoted as A)”. Also, the IC50 in assay [2] was determined as 4.1 nM. Further, the “HRAS /KRAS” value at HRAS wild-type protein was “A (a compound having 10 or more and less than 20 is denoted as A)”. Also, binding in assay [3] was put at a Kd of 0.09 nM.

Consider `CCOC[C@H]1C(=O)N[C@@H]([C@@H](C)CC)C(=O)N(C)CC(=O)N(C)[C@H]2C/C=C\CCN(C2=O)[C@@H](Cc2ccc(C)cc2)C(=O)N(C)CC(=O)N[C@@H](CCc2ccc(C(F)(F)F)c(OC)c2)C(=O)N2C[C@@H](C)C[C@H]2C(=O)NC2(CC(C)(C)C2)C(=O)N(C)[C@@H](C2CCCC2)C(=O)N(C)[C@H](C(=O)N(CC)CC)CC(=O)N1C` [PP2405], for which the “NRAS /KRAS” value in assay [1] was “A (a compound having 10 or more and less than 20 is denoted as A)”. In addition, in assay [2], the half-inhibitory concentration (IC50) is 8.6 nM. Besides, the “HRAS /KRAS” value on HRAS wild-type protein was “A (a compound having 10 or more and less than 20 is denoted as A)”. The compound further yielded a Kd in assay [3] of 0.31 nM.

As to `CCOC[C@H]1C(=O)N[C@@H]([C@@H](C)CC)C(=O)N(C)CC(=O)N(C)[C@H]2C/C=C\CCN(C2=O)[C@@H](Cc2ccc(C)cc2)C(=O)N(C)CC(=O)N[C@@H](CCc2ccc(C(F)(F)F)c(OC)c2)C(=O)N2C[C@H](OCC)C[C@H]2C(=O)NC2(CC(C)(C)C2)C(=O)N(C)[C@@H](C2CCCC2)C(=O)N(C)[C@H](C(=O)N(CC)CC)CC(=O)N1C` [PP2406], in assay [1], the “NRAS /KRAS” value is “A (a compound having 10 or more and less than 20 is denoted as A)”. In addition, the IC50 in assay [2] is 21.3 nM. Also, the “HRAS /KRAS” value on HRAS wild-type protein is “A (a compound having 10 or more and less than 20 is denoted as A)”. In assay [3], this compound showed a Kd of 0.29 nM.

Regarding `CCOC[C@H]1C(=O)N[C@@H]([C@@H](C)CC)C(=O)N(C)CC(=O)N(C)[C@H]2C/C=C\CCN(C2=O)[C@@H](Cc2ccc(C)cc2)C(=O)N(C)CC(=O)N[C@@H](CCc2cc(F)c(C(F)(F)F)c(F)c2)C(=O)N2C[C@@H](C)C[C@H]2C(=O)NC2(CC(C)(C)C2)C(=O)N(C)[C@@H](C2CCCC2)C(=O)N(C)[C@H](C(=O)N(CC)CC)CC(=O)N1C` [PP2407], the “NRAS /KRAS” value in assay [1] was “A (a compound having 10 or more and less than 20 is denoted as A)”. Further, the IC50 in assay [2] was determined as 60.1 nM. Also, the “HRAS /KRAS” value at HRAS wild-type protein is “A (a compound having 10 or more and less than 20 is denoted as A)”. In assay [3], this compound had a Kd of 0.5 nM.

Regarding `CCOC[C@H]1C(=O)N[C@@H]([C@@H](C)CC)C(=O)N(C)CC(=O)N(C)[C@H]2C/C=C\CCN(C2=O)[C@@H](Cc2ccc(C)cc2)C(=O)N(C)CC(=O)N[C@@H](CCc2cc(F)c(C(F)(F)F)c(F)c2)C(=O)N2C[C@H](OCC)C[C@H]2C(=O)NC2(CC(C)(C)C2)C(=O)N(C)[C@@H](C2CCCC2)C(=O)N(C)[C@H](C(=O)N(CC)CC)CC(=O)N1C` [PP2408], in assay [1], the “NRAS /KRAS” value was “A (a compound having 10 or more and less than 20 is denoted as A)”. For the same compound, in assay [2], the IC50 was determined as 21.3 nM. For the same compound, the “HRAS /KRAS” value at HRAS wild-type protein was “A (a compound having 10 or more and less than 20 is denoted as A)”. The same compound yielded a Kd in assay [3] of 0.23 nM.

With `CC[C@H](C)[C@@H]1NC(=O)[C@H](CC(C)C)N(C)C(=O)C[C@@H](C(=O)N(C)C)N(C)C(=O)[C@H](C2CCCC2)N(C)C(=O)C2(CC(C)(C)C2)NC(=O)[C@@H]2C[C@H](C)CN2C(=O)[C@H](CCc2ccc(C(F)(F)F)c(OC)c2)NC(=O)CN(C)C(=O)[C@H](Cc2ccc(C)cc2)N2CC/C=C\C[C@@H](C2=O)N(C)C(=O)[C@@H]2CCCN2C1=O` [PP2409], the “NRAS /KRAS” value in assay [1] was “A (a compound having 10 or more and less than 20 is denoted as A)”. Besides, in assay [2], the IC50 was 31.9 nM. Further, the “HRAS /KRAS” value at HRAS wild-type protein was “B (a compound having 3 or more and less than 10 is denoted as B)”. In assay [3], this compound displayed a dissociation constant (Kd) of 0.48 nM.
